Values quoted from earlier work, collected in patent US11717481B2, “Reduction of flake-like aggregation in nanoparticulate active agent compositions” (Alkermes Pharma Ireland Limited, priority 2009, dated 2023).

solubility in water: Practically insoluble
Structure (SMILES): Cc1cnc(NC(=O)C2=C(O)c3ccccc3S(=O)(=O)N2C)s1 [Meloxicam, 4-hydroxy-2-methyl-N-(5-methyl-2-thiazolyl)-2H-1,2-benzothiazine-3-carboxamide-1,1-dioxide]
